# pIC50: −log10 of the molar value. Where a name gives a salt, the structure may show the parent alone. Read-outs that look alike come from different tables or passages of the source.
# Key:
# [1] = molecular target: Voltage-dependent L-type Ca2+ channel (dihydropyridine site), CACNA1C (r) (Rattus norvegicus, UniProt P22002); type: binding
# [2] = test system: Potassium Voltage-Gated Channel Kv non-selective, KCNQ1 (r); experiment: IPP KCNQ1 binding (antagonist radioligand); set-up: species or system rat
# [3] = test system: Gamma-aminobutyric acid receptor subunit alpha-1 BZD site, GABRA1A (r); type: binding, rat; settings: control diazepam
# [4] = test system: Sodium channel protein type 5 subunit alpha (site 2), SCN5A (r); type: binding, rat
# [5] = molecular target: T1, Adenosine receptor A2a, ADORA2A (h) (Homo sapiens, UniProt P29274); experiment: IPP ADORA2A binding (agonist radioligand); settings: control NECA
# T1 construct: purchased Eurofins Cerep (SafetyScreen44-based IPP panel)
# [6] = test system: Thyroid hormone receptor alpha, THRA (h); experiment: IPP THRA coactivator recruitment (agonist); type: biochemical, human; settings: agonist, T3
# [7] = test system: Tubulin (r); experiment: IPP Tubulin binding; set-up: species or system rat
# [8] = test system: HepG2 cells; experiment: Cell stress panel (CSP), 24 h, 8 concentrations, BIFROST global PoD; type: cell-based; settings: HepG2; cell stress panel PoD
# Description: Compounds were tested using the previously developed cell stress panel ([Hatherell et al. 2020]) and the expanded biomarker panel outlined in Middleton et al. HepG2 cells were treated with all compounds for 24 h across 8 concentrations prior to biomarker analysis. The same plate layout and number of replicates (3 biological and 2 technical) were used as previously for each assay within the panel.
# [9] = test system: HepG2 cells; experiment: High-throughput transcriptomics (HTTr, TempO-Seq), HepG2, 24 h; type: cell-based, human; settings: HepG2; for pod_httr_bifrost PoD: HTTr BIFROST PoD; for podl_path_minbmd PoD: HTTr minimum pathway BMD(L)
# Description: (§1) HepG2, HepaRG, and MCF7 cells were treated with each compound for 24 h across a dose range of 7 concentrations and lysed using TempO-Seq lysis buffer (BioSpyder Technologies, proprietary kit, see [Middleton et al. 2022] for method details). Sequencing was performed using TempO-Seq (BioClavis) version 2 of the human whole transcriptome panel and analyzed as described previously in Middleton et al.
# [10] = test system: HepaRG cells; experiment: High-throughput transcriptomics (HTTr, TempO-Seq), HepaRG, 24 h; type: cell-based, human; settings: HepaRG; for pod_httr_bifrost PoD: HTTr BIFROST PoD; for podl_path_minbmd PoD: HTTr minimum pathway BMD(L)
# Description: as §1
# [11] = test system: MCF7 cells; experiment: High-throughput transcriptomics (HTTr, TempO-Seq), MCF7, 24 h; type: cell-based, human; settings: MCF-7; for pod_httr_bifrost PoD: HTTr BIFROST PoD; for podl_path_minbmd PoD: HTTr minimum pathway BMD(L)
# Description: as §1
# [12] = test system: 63 targets with known safety liabilities; experiment: In vitro pharmacological profiling (IPP) panel, screening at 10 or 100 µM and dose response, minimum IC50/AC50; type: biochemical; settings: read-out: ipp_lowest_ac50_systemic PoD
# [13] = test system: Glutamate receptor ionotropic NMDA 1 non-selective, GRIN1 (r)
# [14] = test system: rat; settings: rat, cited from earlier work
# [15] = cited from earlier work
# [16] = single value or median, ref [2],[4],[6],[7],[8],[10],[11],[15],[18],[27],[34], cited from earlier work
# [17] = PBK level L2; taken or scaled from references (median where several); ref [6],[7],[10],[19]; cited from earlier work
# [18] = hepatic intrinsic clearance (Clint); settings: PBK level L3; optimised against clinical data; per chemical [8],[9],[14],[16],[22],[24],[25],[29],[30],[32]
# [19] = Assignment of risk classifications to benchmark chemical-exposure scenarios; settings: for risk: Oral, Therapeutic, Tablet, from table S1
# [20] = PBK model plasma Cmax estimate (Gastroplus 9.8; levels L1, L2, L3); set-up: species or system human
# [21] = molecular target: Potassium voltage-gated channel subfamily H member 2 hERG, KCNH2 (h) (Homo sapiens, UniProt Q12809); settings: human
# [22] = human
# [23] = per chemical see Peff Reference, cited from earlier work
# [24] = molecular target: Tyrosine-protein kinase Lck, LCK (h) (Homo sapiens, UniProt P06239); experiment: IPP LCK enzymatic activity; type: biochemical; settings: Enzymatic activity; control staurosporine; read-out: IPP Dose Response PoD: LCK
# [25] = molecular target: 5-hydroxytryptamine receptor 2B, HTR2B (h) (Homo sapiens, UniProt P41595)
# [26] = 100 uM, * denotes assay interference (2-Amino-6-chloro-4-nitrophenol, HC Red 3)
# [27] = IV bolus 4 mg, patients hospitalized with community-acquired pneumonia, calibration, ref Spoorenberg et al. 2014
# [28] = Oral tablet 6 mg, fasted, 6 female healthy Asian, validation, ref Jobe et al. 2020
# [29] = Oral tablet 6 mg, fasted, patients hospitalized with community-acquired pneumonia, validation, ref Spoorenberg et al. 2014
# [30] = 10 uM, ligand/control Colchicine
# [31] = IPP screening at 10 uM, control CGS 19755
# T1 sequence (P29274 whole entry): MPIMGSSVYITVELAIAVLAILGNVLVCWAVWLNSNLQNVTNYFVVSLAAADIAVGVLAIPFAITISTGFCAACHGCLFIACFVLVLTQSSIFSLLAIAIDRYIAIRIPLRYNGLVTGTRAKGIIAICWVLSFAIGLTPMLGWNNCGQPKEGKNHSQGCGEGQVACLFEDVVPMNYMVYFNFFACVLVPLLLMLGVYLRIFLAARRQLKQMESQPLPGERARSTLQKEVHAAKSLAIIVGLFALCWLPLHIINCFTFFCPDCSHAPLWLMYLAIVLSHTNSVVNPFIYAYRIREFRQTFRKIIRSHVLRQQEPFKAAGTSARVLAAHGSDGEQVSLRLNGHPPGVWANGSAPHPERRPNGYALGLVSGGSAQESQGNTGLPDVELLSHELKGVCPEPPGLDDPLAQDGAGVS
# Sequence of Voltage-dependent L-type Ca2+ channel (dihydropyridine site), CACNA1C (r) (P22002 whole entry): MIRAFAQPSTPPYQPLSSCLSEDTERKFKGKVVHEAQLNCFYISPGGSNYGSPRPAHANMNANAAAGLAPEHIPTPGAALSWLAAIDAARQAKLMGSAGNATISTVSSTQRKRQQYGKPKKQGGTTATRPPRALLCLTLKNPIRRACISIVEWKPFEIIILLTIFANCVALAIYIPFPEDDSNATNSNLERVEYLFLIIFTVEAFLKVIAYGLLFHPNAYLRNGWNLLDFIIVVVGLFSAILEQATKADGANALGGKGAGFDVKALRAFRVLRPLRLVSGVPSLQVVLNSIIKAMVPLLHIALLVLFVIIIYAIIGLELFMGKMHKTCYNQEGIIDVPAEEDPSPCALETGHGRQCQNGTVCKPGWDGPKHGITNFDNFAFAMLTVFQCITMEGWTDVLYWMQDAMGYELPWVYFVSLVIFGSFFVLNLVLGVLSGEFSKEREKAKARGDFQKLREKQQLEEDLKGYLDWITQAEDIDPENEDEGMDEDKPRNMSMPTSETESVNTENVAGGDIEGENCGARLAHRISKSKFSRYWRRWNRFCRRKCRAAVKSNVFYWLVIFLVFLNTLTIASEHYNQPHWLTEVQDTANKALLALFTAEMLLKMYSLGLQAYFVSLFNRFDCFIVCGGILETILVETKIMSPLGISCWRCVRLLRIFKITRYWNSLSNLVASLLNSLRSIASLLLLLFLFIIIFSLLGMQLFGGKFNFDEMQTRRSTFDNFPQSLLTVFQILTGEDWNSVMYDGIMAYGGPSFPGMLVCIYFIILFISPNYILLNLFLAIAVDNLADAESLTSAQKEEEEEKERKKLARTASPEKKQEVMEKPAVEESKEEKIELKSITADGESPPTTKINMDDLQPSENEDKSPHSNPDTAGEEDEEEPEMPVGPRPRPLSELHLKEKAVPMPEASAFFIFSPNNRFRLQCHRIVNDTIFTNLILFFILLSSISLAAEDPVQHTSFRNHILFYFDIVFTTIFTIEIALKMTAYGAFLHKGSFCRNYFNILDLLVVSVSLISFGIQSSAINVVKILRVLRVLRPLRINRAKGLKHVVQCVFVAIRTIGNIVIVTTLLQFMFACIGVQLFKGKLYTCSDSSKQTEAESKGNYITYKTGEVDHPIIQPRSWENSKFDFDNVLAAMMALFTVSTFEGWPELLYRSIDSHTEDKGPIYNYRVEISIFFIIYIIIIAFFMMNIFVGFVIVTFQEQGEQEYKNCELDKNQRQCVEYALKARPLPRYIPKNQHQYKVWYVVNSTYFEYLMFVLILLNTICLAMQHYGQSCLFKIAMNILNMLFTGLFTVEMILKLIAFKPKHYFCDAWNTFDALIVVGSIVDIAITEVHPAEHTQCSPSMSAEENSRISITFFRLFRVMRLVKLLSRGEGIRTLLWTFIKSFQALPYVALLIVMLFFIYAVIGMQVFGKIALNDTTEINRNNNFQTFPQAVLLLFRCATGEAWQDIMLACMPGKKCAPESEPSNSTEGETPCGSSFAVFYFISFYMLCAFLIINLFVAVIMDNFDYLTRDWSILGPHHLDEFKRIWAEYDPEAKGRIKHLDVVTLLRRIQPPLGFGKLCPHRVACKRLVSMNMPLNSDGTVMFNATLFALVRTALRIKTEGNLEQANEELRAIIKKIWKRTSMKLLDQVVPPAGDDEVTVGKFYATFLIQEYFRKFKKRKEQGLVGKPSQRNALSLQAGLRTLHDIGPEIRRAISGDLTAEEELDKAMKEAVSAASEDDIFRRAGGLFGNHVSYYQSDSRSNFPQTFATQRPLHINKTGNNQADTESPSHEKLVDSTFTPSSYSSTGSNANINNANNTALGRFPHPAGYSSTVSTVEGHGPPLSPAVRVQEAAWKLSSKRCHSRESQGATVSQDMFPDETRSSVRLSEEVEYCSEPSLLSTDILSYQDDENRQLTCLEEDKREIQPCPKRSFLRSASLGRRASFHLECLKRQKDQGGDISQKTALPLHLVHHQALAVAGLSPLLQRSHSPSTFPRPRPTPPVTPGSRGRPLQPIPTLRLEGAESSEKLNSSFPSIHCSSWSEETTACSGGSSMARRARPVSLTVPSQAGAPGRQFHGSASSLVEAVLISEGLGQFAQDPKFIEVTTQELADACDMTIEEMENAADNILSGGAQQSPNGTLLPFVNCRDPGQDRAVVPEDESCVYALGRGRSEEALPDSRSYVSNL
# Sequence of Potassium voltage-gated channel subfamily H member 2 hERG, KCNH2 (h) (Q12809 whole entry): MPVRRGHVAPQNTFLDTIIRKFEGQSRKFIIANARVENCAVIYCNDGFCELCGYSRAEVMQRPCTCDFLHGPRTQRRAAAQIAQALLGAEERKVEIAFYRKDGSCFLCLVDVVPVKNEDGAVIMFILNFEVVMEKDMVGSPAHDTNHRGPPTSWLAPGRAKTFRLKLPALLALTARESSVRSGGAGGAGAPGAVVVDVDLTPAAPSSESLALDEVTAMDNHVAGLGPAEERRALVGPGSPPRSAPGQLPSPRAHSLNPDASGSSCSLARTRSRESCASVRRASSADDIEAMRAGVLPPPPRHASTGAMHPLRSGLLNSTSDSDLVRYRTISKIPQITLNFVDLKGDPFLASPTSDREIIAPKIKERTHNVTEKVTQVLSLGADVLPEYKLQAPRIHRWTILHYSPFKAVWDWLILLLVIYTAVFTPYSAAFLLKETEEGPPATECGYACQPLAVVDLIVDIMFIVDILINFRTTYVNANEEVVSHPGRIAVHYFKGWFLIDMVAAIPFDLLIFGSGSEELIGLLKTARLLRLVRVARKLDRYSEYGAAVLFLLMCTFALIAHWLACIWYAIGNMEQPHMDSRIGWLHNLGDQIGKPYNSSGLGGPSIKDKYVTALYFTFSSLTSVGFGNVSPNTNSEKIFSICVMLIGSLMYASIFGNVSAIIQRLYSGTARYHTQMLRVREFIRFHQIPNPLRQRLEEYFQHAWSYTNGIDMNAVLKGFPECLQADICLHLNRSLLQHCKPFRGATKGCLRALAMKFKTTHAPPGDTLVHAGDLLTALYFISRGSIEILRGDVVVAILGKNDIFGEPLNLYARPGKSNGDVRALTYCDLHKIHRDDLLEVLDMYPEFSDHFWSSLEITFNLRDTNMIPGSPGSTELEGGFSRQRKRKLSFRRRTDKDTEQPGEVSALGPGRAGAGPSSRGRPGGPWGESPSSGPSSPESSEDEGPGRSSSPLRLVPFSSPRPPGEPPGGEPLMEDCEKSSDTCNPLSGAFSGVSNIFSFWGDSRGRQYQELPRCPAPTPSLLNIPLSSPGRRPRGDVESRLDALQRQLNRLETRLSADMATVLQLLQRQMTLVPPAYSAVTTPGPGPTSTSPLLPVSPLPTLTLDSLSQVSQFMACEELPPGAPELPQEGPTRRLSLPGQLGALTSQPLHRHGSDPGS
# Sequence of 5-hydroxytryptamine receptor 2B, HTR2B (h) (P41595 whole entry): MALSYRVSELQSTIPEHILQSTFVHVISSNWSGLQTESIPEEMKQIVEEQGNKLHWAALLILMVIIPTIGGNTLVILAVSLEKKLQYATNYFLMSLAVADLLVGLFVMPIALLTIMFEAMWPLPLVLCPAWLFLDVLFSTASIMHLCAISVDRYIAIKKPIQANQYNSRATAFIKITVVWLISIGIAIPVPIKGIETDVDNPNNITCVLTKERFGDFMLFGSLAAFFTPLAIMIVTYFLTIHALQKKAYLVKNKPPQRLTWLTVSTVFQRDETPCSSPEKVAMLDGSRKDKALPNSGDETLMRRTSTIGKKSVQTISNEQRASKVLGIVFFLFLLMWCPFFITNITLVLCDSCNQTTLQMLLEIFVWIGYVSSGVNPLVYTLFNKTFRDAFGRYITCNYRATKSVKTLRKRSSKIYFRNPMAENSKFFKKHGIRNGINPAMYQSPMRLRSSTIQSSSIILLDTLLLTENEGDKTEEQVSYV
# Sequence of Tyrosine-protein kinase Lck, LCK (h) (P06239 whole entry): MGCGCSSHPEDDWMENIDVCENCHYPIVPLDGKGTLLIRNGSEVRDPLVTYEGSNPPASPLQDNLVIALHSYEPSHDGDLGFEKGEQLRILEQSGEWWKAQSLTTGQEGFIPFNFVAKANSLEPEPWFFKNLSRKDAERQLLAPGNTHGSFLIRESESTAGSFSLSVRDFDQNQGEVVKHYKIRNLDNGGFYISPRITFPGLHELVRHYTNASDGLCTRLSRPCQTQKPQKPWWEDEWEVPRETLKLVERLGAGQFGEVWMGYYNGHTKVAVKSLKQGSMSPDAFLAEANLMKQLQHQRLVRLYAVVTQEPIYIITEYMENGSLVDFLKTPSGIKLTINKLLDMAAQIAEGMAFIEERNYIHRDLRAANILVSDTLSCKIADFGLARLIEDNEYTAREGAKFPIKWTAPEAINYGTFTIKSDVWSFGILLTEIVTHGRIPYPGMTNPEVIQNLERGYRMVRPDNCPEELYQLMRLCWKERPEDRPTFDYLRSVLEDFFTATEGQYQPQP
structure (smiles),measurement,setting,value
"C[C@@H]1C[C@H]2[C@@H]3CCC4=CC(=O)C=C[C@]4(C)[C@@]3(F)[C@@H](O)C[C@]2(C)[C@@]1(O)C(=O)CO [Dexamethasone, 9-Fluoro-11beta,17,21-trihydroxy-16alpha-methylpregna-1,4-diene-3,20-dione]",Specific binding,[1],-36.4%
same,Specific binding,"[2]; IPP screening at 100 uM, control α-dendrotoxin",-4.1%
same,Specific binding,[3]; IPP screening at 100 uM,27.9%
same,Specific binding,[4],11.2%
same,Specific binding,[5]; IPP screening at 100 uM,-9.1%
same,"IPP screening %, Coactivator recruitment",[6]; [26],3.0%
same,"IPP screening %, Specific binding","[7]; 100 uM, ligand/control Colchicine",-8.0%
same,pod_cell_stress PoD,[8],14.5194 µM
same,pod_httr_bifrost PoD,[9],0.0003269 µM
same,podl_path_minbmd PoD,[9],69.6957 µM
same,pod_httr_bifrost PoD,[10],3.5452 µM
same,podl_path_minbmd PoD,[10],74.2662 µM
same,pod_httr_bifrost PoD,[11],9.79e-05 µM
same,podl_path_minbmd PoD,[11],6.367 µM
same,AC50,"[12]; lowest AC50 across IPP panel (systemic targets), cell_type -",3.15 nM
same,Specific binding,"[13]; IPP screening at 100 uM, control CGS 19755",10.7%
same,PoD (NOAEL),"[14]; endocrine toxicity study, ref ECFA ADI",0.001 mg/kg bw/day
same,Reported AUC0-t,[15]; [27],507.3 ng·h/mL
same,Reported cmax,[15]; [27],0.0964 µg/mL
same,Reported tmax,[15]; [27],0 h
same,Reported AUC0-t,[15]; [28],689.3 ng·h/mL
same,Reported cmax,[15]; [28],0.0822 µg/mL
same,Reported tmax,[15]; [28],1.53 h
same,Reported AUC0-t,[15]; [29],746.6 ng·h/mL
same,Reported cmax,[15]; [29],0.0643 µg/mL
same,Reported tmax,[15]; [29],1.4 h
same,Fup,[16]; PBK level L2,26.3%
same,Fup,[16]; PBK level L3,26.3%
same,Intrinsic Liver Clearance,[17],107.8 L/h
same,Intrinsic Liver Clearance,[18],23.37 L/h
same,Risk Classification,[19]; Oral tablet 0.5 mg/day,High risk
same,Risk Classification,[19]; Oral tablet 10 mg/day,High risk
same,risk,"[19]; 0.5mg/day, Exp3",1
same,risk,"[19]; 10mg/day, Exp4",1
"C[C@H]1O[C@@H](O[C@H]2[C@@H](O)C[C@H](O[C@H]3[C@@H](O)C[C@H](O[C@H]4CC[C@@]5(C)[C@H](CC[C@@H]6[C@@H]5C[C@@H](O)[C@]5(C)[C@@H](C7=CC(=O)OC7)CC[C@]65O)C4)O[C@@H]3C)O[C@@H]2C)C[C@H](O)[C@@H]1O [Digoxin, 3beta-{[2,6-Dideoxy-beta-D-ribo-hexopyranosyl-(1->4)-2,6-dideoxy-beta-D-ribo-hexopyranosyl-(1->4)-2,6-dideoxy-beta-D-ribo-hexopyranosyl]oxy}-12beta,14-dihydroxy-5beta-card-20(22)-enolide]",Specific binding,[1],0.7%
same,Specific binding,[2],-2.7%
same,Specific binding,[3]; IPP screening at 10 uM,11.3%
same,Specific binding,[4],19.6%
same,Specific binding,[5]; IPP screening at 10 uM,26.2%
same,"IPP screening %, Coactivator recruitment",[6]; 10 uM,1.0%
same,"IPP screening %, Specific binding",[7]; [30],-7.0%
same,pod_cell_stress PoD,[8],0.0001773 µM
same,pod_httr_bifrost PoD,[9],0.007046 µM
same,podl_path_minbmd PoD,[9],0.02695 µM
same,pod_httr_bifrost PoD,[10],0.01449 µM
same,podl_path_minbmd PoD,[10],0.04151 µM
same,pod_httr_bifrost PoD,[11],0.003833 µM
same,podl_path_minbmd PoD,[11],0.02134 µM
same,L2 Cmax estimate underprediction of the L3 plasma Cmax,"[20]; largest of any underprediction, printed with ∼",30- to 50 fold
same,underprediction of the L3 result at L2 (Cmax),[20]; therapeutic uses,≥ 5 fold
same,Specific binding,[13]; [31],-2.6%
same,"IPP screening %, Specific binding",[21],-6.2%
"NS(=O)(=O)c1cc(C(=O)O)c(NCc2ccco2)cc1Cl [Furosemide, 4-Chloro-2-{[(furan-2-yl)methyl]amino}-5-sulfamoylbenzoic acid]",Specific binding,[5]; IPP screening at 100 uM,15.2%
same,"IPP screening %, Coactivator recruitment",[6]; [26],-1.0%
same,"IPP screening %, Specific binding",[7],-4.0%
same,pod_cell_stress PoD,[8],2.832 µM
same,pod_httr_bifrost PoD,[9],3.253 µM
same,podl_path_minbmd PoD,[9],177.032 µM
same,pod_httr_bifrost PoD,[10],0.2929 µM
same,podl_path_minbmd PoD,[10],1.613 µM
same,pod_httr_bifrost PoD,[11],72.7631 µM
same,podl_path_minbmd PoD,[11],520.886 µM
same,AC50,[12],1380 nM
same,Specific binding,[13],5.8%
same,risk,[22],1
same,PoD (NOEL),"[14]; chronic, ref NTP study",46.9 mg/kg bw/day
same,Peff,"[23]; PBK level L2, ref [3],[4],[11]",0.41 cm/s x E-04
same,Peff,"[23]; PBK level L3, ref [4],[11]",0.41 cm/s x E-04
"COc1ccc(CCN(C)CCCC(C#N)(c2ccc(OC)c(OC)c2)C(C)C)cc1OC (centres unmarked) [Verapamil Hydrochloride, 2-(3,4-Dimethoxyphenyl)-5-{[2-(3,4-dimethoxyphenyl)ethyl](methyl)amino}-2-(propan-2-yl)pentanenitrile--hydrogen chloride (1/1)]",Specific binding,[2],4.7%
same,Specific binding,[3]; IPP screening at 10 uM,-6.7%
same,Specific binding,[4],74.6%
same,pIC50,[24],< 4.45
same,"IPP screening %, Coactivator recruitment",[6]; 10 uM,1.0%
same,"IPP screening %, Specific binding",[7]; [30],13.0%
same,pod_cell_stress PoD,[8],0.6383 µM
same,Specific binding,[13]; [31],2.5%
same,leading IPP PoD (target),[25],antagonism of the serotonin 2B receptor
